Molecules are shown by their SMILES. A value given as a limit tells only on which side of the number the result lay.

Results on six molecules are retold here after patent publication EP1792902A1, “Processes for preparation of 5-(6-quinazolinyl)-furan-2-carbaldehydes” (priority 2000, dated 2002).

In data set [1] the test system is gastric tumor (N87) cell lines. As to the kind of experiment: Methylene Blue Growth Inhibition Assay, N87. Format: cell-based. As to conditions: Homo sapiens, 72 h; 3 days incubation, methylene blue staining. The method, then: (§1) Human breast (BT474), head and neck (HN5) and gastric tumor (N87) cell lines and human foreskin Fibroblasts (HFF) were cultured in low glucose DMEM (Life Technologies 12320-032) containing 10% fetal bovine serum (FBS) at 37°C in a humidified 10% CO2, 90% air incubator. The SV40 transformed human mammary epithelial cell line HB4a was transfected with either human H-ras cDNA (HB4a r4.2) or the human c-erbB2 cDNA (HB4a c5.2). The HB4a clones were cultured in RPMI containing 10% FBS, insulin (5 µg/ml), hydrocortisone (5 µg/ml), supplemented with the selection agent hygromycin B (50µg/ml). Cells were harvested using trypsin/EDTA, counted using a haemocytometer, and plated in […] of the appropriate media, at the following densities, in a 96-well tissue culture plate (Falcon 3075): BT474 10,000 cells/well, HN5 3,000 cells/well, N87 10,000 cells/well, HB4a c5.2 3,000 cells/well, HB4a r4.2 3,000 cells/well, HFF 2500 cells/well. The next day, compounds were diluted in DMEM containing […] gentamicin, at twice the final required concentration, from 10mM stock solutions in DMSO. […]/well of these dilutions were added to the 100ml of media currently on the cell plates. Medium containing 0.6% DMSO was added to control wells. Compounds diluted in DMEM were added to all cell lines, including the HB4a r4.2 and HB4a c5.2 cell lines. The final concentration of DMSO in all wells was 0.3%. Cells were incubated at 37°C, 10% CO2 for 3 days. Medium was removed by aspiration. Cell biomass was estimated by staining cells with 100µl per well methylene blue (Sigma M9140, 0.5% in 50:50 ethanol:water), and incubation at room temperature for at least 30 minutes. Stain was removed, and the plates rinsed under a gentle stream of water, and air-dried. To release stain from the cells 100µl of solubilization solution was added (1% N-lauroyl sarcosine, Sodium salt, Sigma L5125, in PBS), and plates were shaken gently for about 30 minutes. Optical density at 620 nm was measured on a microplate reader. Percent inhibition of cell growth was calculated relative to vehicle treated control wells. […]

For another data set, the system named is breast (BT474). Nature of the data set: Methylene Blue Growth Inhibition Assay, BT474. Format: cell-based. As to conditions: Homo sapiens, BT-474, 72 h; 3 days incubation, methylene blue staining; read-out: BT474 IC50 uM Cell. The method, then: as §1
A further data set relates to head and neck (HN5). As to the kind of experiment: Methylene Blue Growth Inhibition Assay, HN5. Format: cell-based. The following applies: Homo sapiens, 72 h; 3 days incubation, methylene blue staining; read-out: HN5 IC50 uM Cell. The method, then: as §1
Data set [2] in a line: Slurry equilibration method, relative physical stability of anhydrate and monohydrate crystal forms. The following applies: for Equilibrium Form: 25°C, pXRD.
In data set [3] the target is EGFr isolated from solubilised A431 cell membranes (Homo sapiens, UniProt P00533). As to the kind of experiment: Substrate phosphorylation assay, EGFR tyrosine kinase inhibition. Format: biochemical. As to conditions: tested in buffered solution. From the text: (§2) The substrate phosphorylation assays use baculovirus expressed, recombinant constructs of the intracellular domains of c-erbB-2 and c-erbB-4 that are constitutively active and EGFr isolated from solubilised A431 cell membranes. The method measures the ability of the isolated enzymes to catalyse the transfer of the g-phosphate from ATP onto tyrosine residues in a biotinylated synthetic peptide (Biotin-[…]. Substrate phosphorylation was detected following either of the following two procedures: • a.) c-ErbB-2, c-ErbB4 or EGFr were incubated for 30 minutes, at room temperature, with 10mM MnCl2, […], and test compound (diluted from a 5mM stock in DMSO, final DMSO concentration is 2%) in 40mM HEPES buffer, pH 7.4. The reaction was stopped by the addition of EDTA (final concentration 0.15mM) and a sample was transferred to a streptavidin-coated 96-well plate. The plate was washed and the level of phosphotyrosine on the peptide was determined using a Europium-labelled antiphosphotyrosine antibody and quantified with a time-resolved fluorescence technique. • b.) ErbB2 was incubated for 50 minutes at room temperature with 15 mM MnCl2, 2 mM ATP, 0.25 mCi [g-^33P] […] The SPA signal was measured using a Packard Topcount 96-well plate scintillation counter (Packard Instrument Co., Meriden, CT).
Chain of EGFr isolated from solubilised A431 cell membranes (P00533 25-1210): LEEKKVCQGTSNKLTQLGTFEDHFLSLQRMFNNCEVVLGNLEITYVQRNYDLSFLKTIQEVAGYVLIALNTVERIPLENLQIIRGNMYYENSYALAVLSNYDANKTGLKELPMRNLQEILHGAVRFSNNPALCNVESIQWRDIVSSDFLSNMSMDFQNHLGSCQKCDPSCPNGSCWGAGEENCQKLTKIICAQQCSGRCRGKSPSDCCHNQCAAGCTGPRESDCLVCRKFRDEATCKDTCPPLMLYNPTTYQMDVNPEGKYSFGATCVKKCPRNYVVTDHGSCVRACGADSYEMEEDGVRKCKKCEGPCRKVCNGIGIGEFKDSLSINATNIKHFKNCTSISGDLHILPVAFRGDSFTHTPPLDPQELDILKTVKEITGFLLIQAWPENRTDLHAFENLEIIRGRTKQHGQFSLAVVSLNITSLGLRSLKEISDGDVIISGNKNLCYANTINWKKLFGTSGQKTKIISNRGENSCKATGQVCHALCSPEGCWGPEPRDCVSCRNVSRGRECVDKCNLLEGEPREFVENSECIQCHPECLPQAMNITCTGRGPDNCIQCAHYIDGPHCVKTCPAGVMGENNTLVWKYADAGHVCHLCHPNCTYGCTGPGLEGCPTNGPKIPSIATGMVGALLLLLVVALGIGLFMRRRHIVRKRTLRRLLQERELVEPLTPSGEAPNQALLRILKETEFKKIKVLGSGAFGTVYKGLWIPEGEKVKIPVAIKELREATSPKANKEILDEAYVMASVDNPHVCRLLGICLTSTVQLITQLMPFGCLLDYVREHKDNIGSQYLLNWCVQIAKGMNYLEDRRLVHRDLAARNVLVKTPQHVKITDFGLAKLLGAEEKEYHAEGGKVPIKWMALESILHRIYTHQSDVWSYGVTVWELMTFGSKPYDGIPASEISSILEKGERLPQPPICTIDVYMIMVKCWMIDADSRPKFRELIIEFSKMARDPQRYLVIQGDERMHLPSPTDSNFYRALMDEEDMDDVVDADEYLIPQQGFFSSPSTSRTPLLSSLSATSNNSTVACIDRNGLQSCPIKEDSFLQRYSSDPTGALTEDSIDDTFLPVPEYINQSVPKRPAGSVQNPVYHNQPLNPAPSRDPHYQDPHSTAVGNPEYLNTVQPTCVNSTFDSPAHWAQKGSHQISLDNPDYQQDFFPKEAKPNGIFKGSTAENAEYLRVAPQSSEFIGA

A further data set addresses T1, c-erbB-2 (Homo sapiens, UniProt P04626).
T1 construct: recombinant constructs of the intracellular domains of c-erbB-2 and c-erbB-4 that are constitutively active; made in house
As to the kind of experiment: Substrate phosphorylation assay, erbB2 tyrosine kinase inhibition. It counts as biochemical. As to conditions: tested in buffered solution.
Source text: as §2

Another data set has as its target T2, c-erbB-4 (Homo sapiens, UniProt Q15303).
T2 construct: recombinant constructs of the intracellular domains of c-erbB-2 and c-erbB-4 that are constitutively active; made in house
As to the kind of experiment: Substrate phosphorylation assay, erbB4 tyrosine kinase inhibition. Format: biochemical. The following applies: tested in buffered solution.
Source text: as §2

A short description of data set [4]: Moisture sorption testing. It counts as physicochemical. The following applies: at the humidities to which it might be exposed (e.g., 20-75% relative humidity (RH)). How it is done: Approximately 12 mg of N-{3-Chloro-4-[(3-fluorobenzyl) oxy]phenyl}-6-[5-({[2-(methanesulphonyl)ethyl] amino}methyl)-2-furyl]-4-quinazolinamine ditosylate monohydrate salt prepared according to Example 10 was weighed into a sample pan of a moisture sorption apparatus (model number SGA-100, made by VTI). The sample was dried at 60°C under a nitrogen stream until the weight loss was less than 0.015% in 5 minutes. The relative humidity (RH) was then increased (adsorption) to 5, 15, 25, 35, 45, 55, 65, 75, 85 and 95% - at each step, equilibrium was defined as a weight change of less than 0.015% in 5 minutes. The relative humidity was then decreased (desorption) to 90, 80, 70, 60, 50, 40, 30, and 20% with the same equilibrium condition. The sorption curve (y-axis: Weight - % change vs. x-axis: % RH) is depicted in Figure 3(a).
Approximately 15 mg of N-{3-Chloro-4-[(3-fluorobenzyl) oxy]phenyl}-6-[5-({[2-(methanesulphonyl)ethyl]amino}methyl)-2-furyl]-4-quinazolinamine di-HCl salt was weighed into a sample pan of a moisture sorption apparatus (model number SGA-100 , made by VTI). The sample was dried at 60°C under a nitrogen stream until the weight loss was less than 0.015% in 5 minutes. The relative humidity was then increased (adsorption) to 5, 15, 25, 35, 45, 55, 65, 75, 85 and 95% - at each step, equilibrium was defined as a weight change of less than 0.015% in 5 minutes. […]

T1 sequence (P04626 676-1255 limits assumed): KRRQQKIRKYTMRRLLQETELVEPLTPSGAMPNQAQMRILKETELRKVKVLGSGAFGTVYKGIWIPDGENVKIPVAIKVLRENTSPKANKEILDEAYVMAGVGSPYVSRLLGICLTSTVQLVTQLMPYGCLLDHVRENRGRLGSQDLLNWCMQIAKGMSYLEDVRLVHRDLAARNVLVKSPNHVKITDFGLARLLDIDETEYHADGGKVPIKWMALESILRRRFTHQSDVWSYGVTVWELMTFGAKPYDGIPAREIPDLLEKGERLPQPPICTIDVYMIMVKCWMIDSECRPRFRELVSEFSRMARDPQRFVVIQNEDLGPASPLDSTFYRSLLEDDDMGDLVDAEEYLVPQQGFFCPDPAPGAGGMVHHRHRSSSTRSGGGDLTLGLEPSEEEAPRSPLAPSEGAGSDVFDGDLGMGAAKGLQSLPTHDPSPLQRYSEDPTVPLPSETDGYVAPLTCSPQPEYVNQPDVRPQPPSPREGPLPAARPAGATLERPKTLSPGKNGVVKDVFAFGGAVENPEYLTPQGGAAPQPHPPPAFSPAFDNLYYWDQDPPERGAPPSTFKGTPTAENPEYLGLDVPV
T2 sequence (Q15303 676-1308 limits assumed): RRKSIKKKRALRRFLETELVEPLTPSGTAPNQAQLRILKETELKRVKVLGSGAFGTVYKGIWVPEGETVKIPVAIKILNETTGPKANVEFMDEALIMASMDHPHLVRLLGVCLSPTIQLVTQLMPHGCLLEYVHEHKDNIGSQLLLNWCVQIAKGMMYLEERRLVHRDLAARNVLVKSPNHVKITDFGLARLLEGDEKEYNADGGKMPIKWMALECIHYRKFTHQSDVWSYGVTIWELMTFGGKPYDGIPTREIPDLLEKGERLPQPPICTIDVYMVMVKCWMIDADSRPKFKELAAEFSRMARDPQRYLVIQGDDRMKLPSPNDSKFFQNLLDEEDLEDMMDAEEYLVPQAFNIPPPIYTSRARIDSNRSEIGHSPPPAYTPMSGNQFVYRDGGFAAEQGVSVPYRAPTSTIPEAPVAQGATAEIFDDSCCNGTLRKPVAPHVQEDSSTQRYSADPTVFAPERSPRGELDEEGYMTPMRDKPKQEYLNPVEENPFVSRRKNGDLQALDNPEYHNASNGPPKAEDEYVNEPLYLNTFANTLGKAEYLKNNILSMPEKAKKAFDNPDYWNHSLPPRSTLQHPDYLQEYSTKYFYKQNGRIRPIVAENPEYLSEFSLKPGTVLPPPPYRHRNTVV

For orientation: IC50 means the concentration that gives 50% inhibition. Consider `CS(=O)(=O)CCNCc1ccc(-c2ccc3ncnc(Nc4ccc(OCc5cccc(F)c5)c(Cl)c4)c3c2)o1` [Example 8, N-{3-Chloro-4-[(3-fluorobenzyl)oxy]phenyl}-6-[5({[2-(methanesulphonyl)ethyl]amino}methyl)-2-furyl]-4-quinazolinamine ditosylate anhydrate], for which the IC50 was < 5 µM in data set [1]; < 5 µM in the data set on breast (BT474); < 5 µM with head and neck (HN5).

Turning to `CS(=O)(=O)CCNCc1ccc(-c2ccc3ncnc(Nc4ccc(OCc5cccc(F)c5)c(Cl)c4)c3c2)o1` [Example 10, N-{3-Chloro-4-[(3-f/uorobenzyl)oxy]phenyl}-6-[5-({[2-(methanesulphonyl)ethyl]amino}methyl)-2-furyl]-4-quinazolinamine ditosylate monohydrate], the “RH at which the monohydrate becomes the thermodynamically stable form” value in data set [2] (remains stable up through 100% RH, slurry equilibration at 25°C) is recorded as 7 - 15 % RH.

Turning to `CS(=O)(=O)CCNCc1ccc(-c2ccc3ncnc(Nc4ccc(OCc5cccc(F)c5)c(Br)c4)c3c2)o1` [Example 12, (4-(3-Fluoro-benzyloxy)-3-bromophenyl)-(6-(5-((2-methanesulphonyl-ethylamino)-methyl)-furan-2 yl)quinazolin-4 yl)-amine ditosylate], the IC50 in data set [3] is < 0.1 µM; against c-erbB-2, < 0.1 µM; at c-erbB-4 it was 1 to 10 µM; in data set [1] it was < 5 µM; in the data set with breast (BT474) it was < 5 µM; with head and neck (HN5) it was < 5 µM.

Regarding `CS(=O)(=O)CCNCc1nc(-c2ccc3ncnc(Nc4ccc(OCc5cccc(F)c5)c(Cl)c4)c3c2)cs1` [Example 13, (4-(3-Fluoro-benzyloxy)-3-chlorophenyl)-(6-(2-((2-methanesulphonyl-ethylamino)-methyl)-thiazol-4-yl)quinazolin-4-yl)-amine ditosylate], the IC50 in data set [3] was < 0.1 µM; against c-erbB-2, < 0.1 µM; against c-erbB-4 it was 0.1 to 1 µM; in data set [1], < 5 µM; with breast (BT474), < 5 µM; with head and neck (HN5), < 5 µM.

In the case of `CS(=O)(=O)CCNCc1ccc(-c2ccc3ncnc(Nc4ccc(OCc5cccc(F)c5)c(Cl)c4)c3c2)o1.Cc1ccc(S(=O)(=O)O)cc1.Cc1ccc(S(=O)(=O)O)cc1` [N-{3-Chloro-4-[(3-fluorobenzyl)oxy]phenyl}-6-[5-({[2-(methanesulphonyl)ethyl]amino}methyl)-2-furyl]-4-quinazolinamine ditosylate], the “Equilibrium Form” value in data set [2] (RH 0 %, Water Volume 0 %, Water Mole Fraction 0.00, 1:1 anhydrate/monohydrate slurry in MeOH/H2O) was “Anhydrate”; in data set [2] (RH 7 %, Water Volume 2 %, Water Mole Fraction 0.04, 1:1 anhydrate/monohydrate slurry in MeOH/H2O) it was “Anhydrate”; in data set [2] (RH 15 %, Water Volume 5 %, Water Mole Fraction 0.11, 1:1 anhydrate/monohydrate slurry in MeOH/H2O), “Monohydrate”; in data set [2] (RH 26 %, Water Volume 10 %, Water Mole Fraction 0.20, 1:1 anhydrate/monohydrate slurry in MeOH/H2O) it was “Monohydrate”; in data set [2] (RH 43 %, Water Volume 20 %, Water Mole Fraction 0.36, 1:1 anhydrate/monohydrate slurry in MeOH/H2O), “Monohydrate”; in data set [2] (RH 66 %, Water Volume 40 %, Water Mole Fraction 0.60, 1:1 anhydrate/monohydrate slurry in MeOH/H2O), “Monohydrate”. Moreover, the “Equilibrium Form” value in data set [2] (RH 80 %, Water Volume 60 %, Water Mole Fraction 0.77, 1:1 anhydrate/monohydrate slurry in MeOH/H2O) is “Monohydrate”; in data set [2] (RH 91 %, Water Volume 80 %, Water Mole Fraction 0.90, 1:1 anhydrate/monohydrate slurry in MeOH/H2O) it was “Monohydrate”; in data set [2] (RH 95 %, Water Volume 90 %, Water Mole Fraction 0.95, 1:1 anhydrate/monohydrate slurry in MeOH/H2O), “Monohydrate”; in data set [2] (RH 100 %, Water Volume 100 %, Water Mole Fraction 1.00, 1:1 anhydrate/monohydrate slurry), “Monohydrate”.

In the case of `CS(=O)(=O)CCNCc1ccc(-c2ccc3ncnc(Nc4ccc(OCc5cccc(F)c5)c(Cl)c4)c3c2)o1.Cl.Cl` [di-HCl salt, N-{3-Chloro-4-[(3-fluorobenzyl)oxy]phenyl}-6-[5-({[2-(methanesulphonyl)ethyl]amino}methyl)-2-furyl]-4-quinazolinamine di-HCl salt], in data set [4], the water sorption entry was “sorbs very large amounts of water”.
